Laboratory results published in the Deep4Chem optical property database.
Where “and” joins values, the source holds several entries; their conditions need not be identical. Identical values can stand only once.

Test: solvent given as SMILES

Structure (SMILES): O=S1(=O)C2=C(c3ccc(N(c4ccccc4)c4ccccc4)cc31)C1(C3=C(c4ccccc41)S(=O)(=O)c1cc(N(c4ccccc4)c4ccccc4)ccc13)c1ccccc12
- emission maximum (in C1CCOC1): 561 nm
- emission maximum (in CC#N): 598 nm
- emission maximum (in CCCCCC): 521 nm
- emission maximum (in Cc1ccccc1): 543 nm
- emission maximum (in ClCCl): 577 nm

Structure (SMILES): CCn1c2ccccc2c2cc3c(cc21)c1ccccc1n3CC
- emission maximum (in ClC(Cl)Cl): 425 nm

Structure (SMILES): CC(C)(C)c1ccc2c(c1)c1cc(C(C)(C)C)ccc1n2-c1ccc(N(c2ccc(-c3ccc(-c4ccc(-c5ccc(-c6ccc(-c7ccc(N(c8ccc(-n9c%10ccc(C(C)(C)C)cc%10c%10cc(C(C)(C)C)ccc%109)cc8)c8ccc(-n9c%10ccc(C(C)(C)C)cc%10c%10cc(C(C)(C)C)ccc%109)cc8)cc7)s6)s5)s4)s3)cc2)c2ccc(-n3c4ccc(C(C)(C)C)cc4c4cc(C(C)(C)C)ccc43)cc2)cc1
- emission maximum (in ClCCl): 529 nm

Structure (SMILES): CCCCCCN1C(=O)c2cccc3cc(/N=C\c4nc5ccccc5s4)cc(c23)C1=O
- emission maximum (in ClC(Cl)Cl): 495 nm

Structure (SMILES): C[Si](C)(C)c1ccc2ccc3cccc4ccc1c2c34
- emission maximum (in CCCCCC): 346 nm
- emission maximum (in CO): 376 nm
- emission maximum (in ClCCl): 377 nm

Structure (SMILES): O=C(O)COc1ccc2[nH]c3c(c2c1)CCCC3=O
- emission maximum (in C1CCOC1): 419.81 nm
- emission maximum (in C1COCCO1): 404.04 nm
- emission maximum (in CC#N): 419.23 nm
- emission maximum (in CCCCCCCCCCCCO): 449.42 nm
- emission maximum (in CCCCCCCCCCO): 449.81 nm
- emission maximum (in CCCCCCCCO): 456.15 nm
- emission maximum (in CCCCCCO): 469.04 nm
- emission maximum (in CCCCO): 464.23 nm
- emission maximum (in CCO): 472.12 nm
- emission maximum (in CCOC(C)=O): 410 nm
- emission maximum (in CN(C)C=O): 430 nm
- emission maximum (in CO): 491.73 nm
- emission maximum (in CS(C)=O): 426.92 nm
- emission maximum (in Cc1ccccc1): 400.96 nm
- emission maximum (in O): 507.69 nm
- emission maximum (in c1ccccc1): 399.81 nm

Structure (SMILES): FP(F)(c1c2ccccc2cc2ccccc12)(c1c2ccccc2cc2ccccc12)c1c2ccccc2cc2ccccc12
- emission maximum (in C1CCOC1): 410 nm

Structure (SMILES): CC(C)[Si](C#Cc1c2cc3ccccc3cc2c(C#Cc2ccccc2)c2cc3ccccc3cc12)(C(C)C)C(C)C
- emission maximum (in ClCCl): 661 nm

Structure (SMILES): CCN(CC)c1ccc(OC)c(C=O)c1
- emission maximum (in CC#N): 548 nm
- emission maximum (in CC(C)O): 600 nm
- emission maximum (in CCCCCC): 470 nm
- emission maximum (in CCOC(C)=O): 518 nm
- emission maximum (in CO): 645 nm
- emission maximum (in CS(C)=O): 558 nm
- emission maximum (in Cc1ccccc1): 509 nm
- emission maximum (in ClCCl): 538 nm

Structure (SMILES): N#C/C=C/c1ccc2ccc3cccc4ccc1c2c34
- emission maximum (in C1CCOC1): 425 nm
- emission maximum (in C1COCCO1): 421.5 nm
- emission maximum (in C=CC#N): 439.5 nm
- emission maximum (in CC#N): 440.5 nm
- emission maximum (in CC(C)=O): 433 nm
- emission maximum (in CCCCCC): 409.5 nm
- emission maximum (in CCOC(C)=O): 423 nm
- emission maximum (in CO): 443 nm
- emission maximum (in Cc1ccccc1): 423 nm
- emission maximum (in ClCCl): 434 nm

Structure (SMILES): CC(C)[Si](C#Cc1c2cc3ccccc3cc2c(C#C[Si](C(C)C)(C(C)C)C(C)C)c2cc3ccccc3cc12)(C(C)C)C(C)C
- emission maximum (in ClCCl): 649 nm

Structure (SMILES): CCOC(=O)c1ccc2nc(/N=N/c3ccc(N(CC)CC)cc3)sc2c1
- emission maximum (in CC#N): 582 nm
- emission maximum (in ClCCl): 571 nm

Structure (SMILES): CC(=O)Nc1ccc(C2=C/C(=C\c3ccc(C#N)cc3)C(=O)N2)cc1
- emission maximum (in C1COCCO1): 584 nm

Structure (SMILES): CCCCN(CCCC)c1ccc2c(c1)C#CC#Cc1cc(C(F)(F)F)ccc1C#Cc1cc(c3cc1C#Cc1ccc(C(F)(F)F)cc1C#CC#Cc1cc(N(CCCC)CCCC)ccc1C#C3)C#C2
- emission maximum (in ClCCl): 550 nm
- emission maximum (in c1ccccc1): 503 nm

Structure (SMILES): CN(C)c1ccc(C#Cc2ccc3ccc4c(C#Cc5ccc(N(C)C)cc5)ccc5ccc2c3c54)cc1
- emission maximum (in C1COCCO1): 489.2 nm
- emission maximum (in CC(C)=O): 569.6 nm
- emission maximum (in CCCCCC): 460.4 nm
- emission maximum (in CCCCCCO): 528.2 nm
- emission maximum (in CCO): 540 nm
- emission maximum (in CCOC(C)=O): 523.5 nm
- emission maximum (in CO): 554 nm
- emission maximum (in Cc1ccccc1): 483.7 nm
- emission maximum (in ClCCl): 532.8 nm

Structure (SMILES): CCCCN1C(=O)c2cc(Br)c3c4c(Br)c(Br)c5c6c(cc(Br)c(c7c(Br)c(Br)c(c2c37)C1=O)c64)C(=O)N(CCCC)C5=O
- emission maximum (in ClC(Cl)Cl): 580 nm

Structure (SMILES): COc1cc2cc(-c3ccc(C(=O)OCOC(C)=O)cc3C(=O)OCOC(C)=O)oc2cc1N1CCOCCOCCN(c2cc3oc(-c4ccc(C(=O)OCOC(C)=O)cc4C(=O)OCOC(C)=O)cc3cc2OC)CCOCCOCC1
- emission maximum (in O): 546 nm

Structure (SMILES): CCOC(=O)c1ccc(C2=Cc3ccccc3P2(=O)c2ccccc2)cc1 (stereo not drawn)
- emission maximum (in ClCCl): 425 nm

Structure (SMILES): COc1ccc(-c2cccc3ncc(-c4ccc(C#N)cc4)n23)cc1
- emission maximum (in ClCCl): 447 nm

Structure (SMILES): COc1cc2c(cc1OC)C1=C[C@H](c3ccccc3)C3(C(C#N)=C(C#N)N1CC2)c1cc(Cl)ccc1-c1ccc(Cl)cc13
- emission maximum (in ClCCl): 389 nm

Structure (SMILES): COc1ccc(-c2cnc3nn4ccccc4c3n2)cc1
- emission maximum (in C1CCOC1): 455 nm

Structure (SMILES): Clc1ccc(/C=C/c2ccc(-c3nc4c5cccnc5c5ncccc5c4[nH]3)cc2)cc1
- emission maximum (in C1CCOC1): 463 nm
- emission maximum (in CC#N): 471 nm
- emission maximum (in CO): 473 nm
- emission maximum (in ClCCl): 467 nm

Structure (SMILES): CC(C)(C)c1ccc(-c2c3c(c(-c4ccc(C(C)(C)C)cc4)c4cc5ccccc5cc24)Cc2c(c(-c4ccc(C(C)(C)C)cc4)c4cc5ccccc5cc4c2-c2ccc(C(C)(C)C)cc2)C3)cc1
- emission maximum (in ClCCl): 409 nm

Structure (SMILES): O=S(=O)(c1ccc(-c2ccc3c(c2)c2ccccc2n3-c2ccccc2)cc1)c1ccc(-c2ccc3c(c2)c2ccccc2n3-c2ccccc2)cc1
- emission maximum (in C1CCCCC1): 365.07 nm
- emission maximum (in C1CCOC1): 403.28 nm
- emission maximum (in CN(C)C=O): 431.81 nm
- emission maximum (in Cc1ccccc1): 381 nm
- emission maximum (in ClC(Cl)Cl): 402.48 nm
- emission maximum (in ClCCl): 415.93 nm

Structure (SMILES): CCCCN(CCCC)c1ccc(C#Cc2cc(C#Cc3cc(C(F)(F)F)cc(C(F)(F)F)c3)c(C#Cc3cc(C(F)(F)F)cc(C(F)(F)F)c3)cc2C#Cc2ccc(N(CCCC)CCCC)cc2)cc1
- emission maximum (in ClCCl): 556 nm
- emission maximum (in c1ccccc1): 506 nm

Structure (SMILES): Cc1ccc(-c2cnc3nn4ccccc4c3n2)cc1
- emission maximum (in C1CCOC1): 450 nm

Structure (SMILES): c1ccc(-c2nc(-c3ccccc3)nc(-c3ccc(-n4c5ccccc5c5cc6c(cc54)C(c4ccccc4)(c4ccccc4)c4ccccc4-6)cc3)n2)cc1
- emission maximum (in C1CCOC1): 494.27 nm
- emission maximum (in CCCCCC): 400.55 nm
- emission maximum (in Cc1ccccc1): 442 nm
- emission maximum (in ClCCl): 519.15 nm
- emission maximum (in O=P(c1ccccc1)(c1ccccc1)c1ccccc1Oc1ccccc1P(=O)(c1ccccc1)c1ccccc1): 471 nm

Structure (SMILES): Cc1ccc(C#Cc2ccc3ccc(=O)oc3c2)cc1
- emission maximum (in CC#N): 440 nm

Structure (SMILES): C(=C\c1cnccn1)/c1ccc(N(c2ccccc2)c2ccc(/C=C/c3cnccn3)cc2)cc1
- emission maximum (in ClCCl): 569 nm

Structure (SMILES): CCn1c2ccccc2c2cc(/C=C/C(=O)c3ccc4c(c3)c3cc(C(=O)/C=C/c5ccc6c(c5)c5ccccc5n6CC)ccc3n4CC)ccc21
- emission maximum (in C1CCCCC1): 430 nm
- emission maximum (in C1CCOC1): 474 nm
- emission maximum (in CC#N): 491 nm
- emission maximum (in CC(C)=O): 476 nm
- emission maximum (in CCO): 521 nm
- emission maximum (in CCOCC): 475 nm
- emission maximum (in CN(C)C=O): 487 nm
- emission maximum (in CO): 542 nm
- emission maximum (in CS(C)=O): 493 nm
- emission maximum (in ClC(Cl)(Cl)Cl): 454 nm
- emission maximum (in ClC(Cl)Cl): 475 nm

Structure (SMILES): c1ccc(-c2nc(-c3ccccc3)nc(-c3ccc(N4c5ccccc5C5(c6ccccc64)c4ccccc4C4(c6ccccc6-c6ccccc64)c4ccccc45)cc3)n2)cc1
- emission maximum (in Cc1ccccc1): 475.42 nm

Structure (SMILES): CC[N+](CC)=c1ccc2cc3c(oc-2c1)-c1ccc(N(C)C)cc1CC3
- emission maximum (in CCO): 644 nm
- emission maximum (in ClCCl): 642 nm
- emission maximum (in O): 641 nm

Structure (SMILES): CC(C)(C)C#Cc1ccc2c3cccc4cccc(c5cccc1c52)c43
- emission maximum (in C1CCCCC1): 459.88 nm

Structure (SMILES): CC1=CC(C)=[N+]2C1=C(c1ccccc1)c1c(C)cc(C)n1[B-]2(F)F
- emission maximum (in C1CCOC1): 512 nm and 510 nm
- emission maximum (in CC#N): 508 nm
- emission maximum (in CC(=O)C(C)(C)C): 511 nm
- emission maximum (in CC(C)=O): 509 nm
- emission maximum (in CCCCCC): 511 nm
- emission maximum (in CCOC(C)=O): 510 nm
- emission maximum (in CO): 509 nm and 510 nm
- emission maximum (in Cc1ccccc1): 516 nm
- emission maximum (in ClCCl): 513 nm

Structure (SMILES): Nc1ccc2c(-c3ccc(Br)cc3)c3ccc(=[NH2+])cc-3oc2c1
- emission maximum (in CCO): 532 nm

Structure (SMILES): Clc1cccc(-c2nc3sc4ccccc4c3s2)c1
- emission maximum (in CS(C)=O): 420 nm

Structure (SMILES): c1ccc(-c2c3c(nc4ccccc24)-c2cc4c(cc2CC3)-c2nc3ccccc3c(-c3ccccc3)c2CC4)cc1
- emission maximum (in ClC(Cl)Cl): 387 nm

Structure (SMILES): CCCC1(CCC)c2cc(-c3ccc4c(c3)C(CCC)(CCC)c3cc(-c5ccc6c(c5)C(CCC)(CCC)c5cc(C(C)(C)CC)ccc5-6)ccc3-4)ccc2-c2ccc(-c3ccc4c(c3)C(CCC)(CCC)c3cc(C(C)(C)CC)ccc3-4)cc21
- emission maximum (in C1CCCCC1): 407 nm

Structure (SMILES): CC(C)(C)c1ccc(C2=C(c3ccc(N(c4ccccc4)c4ccccc4)cc3)S(=O)(=O)c3c2sc(-c2ccc(N(c4ccccc4)c4ccccc4)cc2)c3-c2ccc(C(C)(C)C)cc2)cc1
- emission maximum (in C1CCOC1): 591 nm

Structure (SMILES): c1ccc2c(c1)c1ccccc1n2-c1ccc(-c2cc3ccc(-c4ccc5cc(-c6ccc(-n7c8ccccc8c8ccccc87)cc6)oc5c4)cc3o2)cc1
- emission maximum (in Cc1ccccc1): 407 nm
- emission maximum (in c1ccc2c(c1)c1ccccc1n2-c1ccc(-c2ccc(-n3c4ccccc4c4ccccc43)cc2)cc1): 419 nm

Structure (SMILES): CCc1cccc(CC)c1-c1c2ccccc2c(-c2c(CC)cccc2CC)c2cc3ccccc3cc12
- emission maximum (in ClCCl): 501 nm

Structure (SMILES): N#Cc1ccc2[nH]ccc2c1
- emission maximum (in C1CCOC1): 349 nm
- emission maximum (in C1COCCO1): 348 nm
- emission maximum (in CC#N): 362 nm
- emission maximum (in CC(C)O): 362 nm
- emission maximum (in CCO): 364 nm
- emission maximum (in CO): 367 nm
- emission maximum (in CS(C)=O): 371 nm
- emission maximum (in O): 390 nm
- emission maximum (in OCC(F)(F)F): 374 nm

Structure (SMILES): CN(C)c1ccc(/C=C/c2cnc(C#Cc3ccc(C#N)cc3)o2)cc1
- emission maximum (in ClCCl): 515 nm

Structure (SMILES): c1ccc(-c2cc3cccc[n+]3[b-]3ccc(-c4cc[b-]5c(c4)c(-c4ccccc4)cc4cccc[n+]54)cc32)cc1
- emission maximum (in C1CCCCC1): 568 nm
